Source: the NIST ThermoML archive (doi:10.1016/j.jct.2013.10.038)
Numbers after ± are expanded uncertainties.

Assays:
[1] = activity coefficient (dimensionless); of the first substance listed, at infinite dilution; xn = mol fraction of the nth substance listed; details: 101 kPa, Liquid, Chromatography, x1 = 0
[2] = 101.33 kPa, Liquid, Pycnometric method

| Compound | activity coefficient ([1]; 303.15 K) | activity coefficient ([1]; 313.15 K) | activity coefficient ([1]; 323.15 K) | activity coefficient ([1]; 333.15 K) | activity coefficient ([1]; 343.15 K) | activity coefficient ([1]; 353.15 K) | activity coefficient ([1]; 363.15 K) | mass density ([2]; 293.15 K) [kg/m3] | mass density ([2]; 303.15 K) [kg/m3] | mass density ([2]; 313.15 K) [kg/m3] | mass density ([2]; 323.15 K) [kg/m3] | mass density ([2]; 333.15 K) [kg/m3] | mass density ([2]; 343.15 K) [kg/m3] |
| --- | --- | --- | --- | --- | --- | --- | --- | --- | --- | --- | --- | --- | --- |
| ClCCCl [1,2-dichloroethane] + CCCCCCn1cc[n+](C)c1.O=C([O-])C(F)(F)F | 0.62 ± 0.07 | 0.75 ± 0.08 | 0.9 ± 0.09 | 1.1 ± 0.11 | 1.26 ± 0.13 | 1.62 ± 0.17 | 1.67 ± 0.17 | – | – | – | – | – | – |
| Cc1ccccc1C [1,2-dimethylbenzene] + CCCCCCn1cc[n+](C)c1.O=C([O-])C(F)(F)F | 3.54 ± 0.37 | 3.67 ± 0.39 | 3.83 ± 0.4 | 3.98 ± 0.42 | 4.1 ± 0.43 | 4.13 ± 0.43 | 4.53 ± 0.48 | – | – | – | – | – | – |
| Cc1cccc(C)c1 [1,3-dimethylbenzene] + CCCCCCn1cc[n+](C)c1.O=C([O-])C(F)(F)F | 4.19 ± 0.44 | 4.25 ± 0.45 | 4.34 ± 0.46 | 4.39 ± 0.46 | 4.42 ± 0.46 | 4.53 ± 0.48 | 4.56 ± 0.48 | – | – | – | – | – | – |
| Cc1ccc(C)cc1 [1,4-dimethylbenzene] + CCCCCCn1cc[n+](C)c1.O=C([O-])C(F)(F)F | 4.12 ± 0.43 | 4.18 ± 0.44 | 4.24 ± 0.45 | 4.29 ± 0.45 | 4.32 ± 0.45 | 4.42 ± 0.46 | 4.43 ± 0.47 | – | – | – | – | – | – |
| C1COCCO1 [1,4-dioxane] + CCCCCCn1cc[n+](C)c1.O=C([O-])C(F)(F)F | 1.91 ± 0.2 | 1.92 ± 0.2 | 1.93 ± 0.2 | 1.94 ± 0.2 | 1.95 ± 0.2 | 1.95 ± 0.2 | 1.97 ± 0.21 | – | – | – | – | – | – |
| CCCCCCn1cc[n+](C)c1.O=C([O-])C(F)(F)F [1-hexyl-3-methylimidazolium trifluoroacetate] | – | – | – | – | – | – | – | 1153.5 ± 1.1 | 1146.6 ± 1.1 | 1140.7 ± 1.1 | 1134.4 ± 1.1 | 1127.8 ± 1.1 | 1121.6 ± 1.1 |
| CC(C)CC(C)(C)C [2,2,4-trimethylpentane] + CCCCCCn1cc[n+](C)c1.O=C([O-])C(F)(F)F | – | – | 46.8 ± 4.9 | – | – | – | – | – | – | – | – | – | – |
| CC(C)CO [2-methyl-1-propanol] + CCCCCCn1cc[n+](C)c1.O=C([O-])C(F)(F)F | – | – | 0.29 ± 0.04 | 0.3 ± 0.04 | 0.3 ± 0.04 | 0.31 ± 0.04 | 0.31 ± 0.04 | – | – | – | – | – | – |
| CC(C)=O [acetone] + CCCCCCn1cc[n+](C)c1.O=C([O-])C(F)(F)F | 1.69 ± 0.18 | 1.69 ± 0.18 | 1.68 ± 0.18 | 1.68 ± 0.18 | 1.67 ± 0.17 | 1.67 ± 0.17 | 1.67 ± 0.17 | – | – | – | – | – | – |
| CC#N [acetonitrile] + CCCCCCn1cc[n+](C)c1.O=C([O-])C(F)(F)F | 1.01 ± 0.1 | 1.05 ± 0.11 | 1.11 ± 0.11 | 1.16 ± 0.12 | 1.22 ± 0.13 | 1.28 ± 0.13 | 1.32 ± 0.14 | – | – | – | – | – | – |
| c1ccccc1 [benzene] + CCCCCCn1cc[n+](C)c1.O=C([O-])C(F)(F)F | 2.05 ± 0.22 | 2.07 ± 0.22 | 2.09 ± 0.22 | 2.1 ± 0.22 | 2.12 ± 0.22 | 2.13 ± 0.22 | 2.14 ± 0.22 | – | – | – | – | – | – |
| Brc1ccccc1 [bromobenzene] + CCCCCCn1cc[n+](C)c1.O=C([O-])C(F)(F)F | 2.18 ± 0.23 | 2.2 ± 0.23 | 2.24 ± 0.24 | 2.29 ± 0.24 | 2.32 ± 0.24 | 2.36 ± 0.25 | 2.41 ± 0.25 | – | – | – | – | – | – |
| Clc1ccccc1 [chlorobenzene] + CCCCCCn1cc[n+](C)c1.O=C([O-])C(F)(F)F | 2.27 ± 0.24 | 2.26 ± 0.24 | 2.24 ± 0.24 | 2.22 ± 0.23 | 2.2 ± 0.23 | 2.2 ± 0.23 | 2.2 ± 0.23 | – | – | – | – | – | – |
| C1CCCCC1 [cyclohexane] + CCCCCCn1cc[n+](C)c1.O=C([O-])C(F)(F)F | – | – | 16.9 ± 1.8 | – | – | – | – | – | – | – | – | – | – |
| C1=CCCCC1 [cyclohexene] + CCCCCCn1cc[n+](C)c1.O=C([O-])C(F)(F)F | – | – | 9.6 ± 1 | – | – | – | – | – | – | – | – | – | – |
